According to patent US20240173334A1, “Oral (17-ß)-3-Oxoandrost-4-EN-17-YL Tridecanoate Therapy” (Lipocine Inc., priority 2018, published 2024):

Tests used:
[1] = multiple-dose steady-state PK of dosage form B7 in hypogonadal males (Example 5); assay type: in vivo, human (hypogonadal males)
Protocol: A multi-center, open-label, randomized, 4-treatment arm, multiple-dose study was performed to evaluate the safety, tolerability, and the steady-state PK parameters of the oral composition comprising substantially noncrystalline form of (17-ß)-3-oxoandrost-4-en-17-yl tridecanoate (dosage form B7) in hypogonadal males (N=48). The treatments were following as: • Treatment A: 500 mg of (17-ß)-3-oxoandrost-4-en-17-yl tridecanoate as androst-4-en-17β-ol-3-one ester in dosage form B7 in QD. • Treatment B: 750 mg of (17-ß)-3-oxoandrost-4-en-17-yl tridecanoate as androst-4-en-17β-ol-3-one ester in dosage form B7 in QD. • Treatment C: 1000 mg of (17-ß)-3-oxoandrost-4-en-17-yl tridecanoate as androst-4-en-17β-ol-3-one ester in dosage form B7 in QD. • Treatment D: 1250 mg of (17-ß)-3-oxoandrost-4-en-17-yl tridecanoate as androst-4-en-17β-ol-3-one ester in dosage form B7 in QD.
(§1) The steady state PK parameters were obtained post the treatment initiation.
The evaluation of the relation between Cavg or Cmax and dose amount of (17-ß)-3-oxoandrost-4-en-17-yl tridecanoate was performed using the group mean values of Cavg and Cmax of androst-4-en-17β-ol-3-one obtained at the steady state.

[2] = ascending multiple-dose steady-state PK of undecanoate in dosage form B1 in hypogonadal males (Example 6); assay type: in vivo, human (adult hypogonadal male subjects)
Protocol: A single-center, randomized, double-blind, placebo-controlled, ascending multiple-dose, serial-group study was conducted to evaluate the safety, tolerability, and the steady-state PK parameters of an oral composition comprising substantially noncrystalline form of (17-ß)-3-oxoandrost-4-en-17-yl undecanoate in adult hypogonadal male subjects (N=84). The treatments were following as: • Treatment A: 75 mg of (17-ß)-3-oxoandrost-4-en-17-yl undecanoate as androst-4-en-17β-ol-3-one ester based on dosage form B1 in BID. • Treatment B: 150 mg of (17-ß)-3-oxoandrost-4-en-17-yl undecanoate as androst-4-en-17β-ol-3-one ester based on dosage form B1 in BID. • Treatment C: 225 mg of (17-ß)-3-oxoandrost-4-en-17-yl undecanoate as androst-4-en-17β-ol-3-one ester based on dosage form B1 in BID. • Treatment D: 300 mg of (17-ß)-3-oxoandrost-4-en-17-yl undecanoate as androst-4-en-17β-ol-3-one ester based on dosage form B1 in BID. • Treatment E: placebo capsules in BID
as §1

[3] = 500 mg QD, dosage form B7, N=12
[4] = 750 mg QD, dosage form B7, N=11
[5] = 1000 mg QD, dosage form B7, N=12
[6] = 1250 mg QD, dosage form B7, N=12
[7] = 75 mg BID, dosage form B1, N=16
[8] = 150 mg BID, dosage form B1, N=16
[9] = 225 mg BID, dosage form B1, N=16
[10] = 300 mg BID, dosage form B1, N=9

| Structure (SMILES) | Cavg of androst-4-en-17β-ol-3-one, mean (±SD) [1, 3] | Cmax of androst-4-en-17β-ol-3-one, mean (±SD) [1, 3] | Cavg of androst-4-en-17β-ol-3-one, mean (±SD) [1, 4] | Cmax of androst-4-en-17β-ol-3-one, mean (±SD) [1, 4] | Cavg of androst-4-en-17β-ol-3-one, mean (±SD) [1, 5] | Cmax of androst-4-en-17β-ol-3-one, mean (±SD) [1, 5] | Cavg of androst-4-en-17β-ol-3-one, mean (±SD) [1, 6] | Cmax of androst-4-en-17β-ol-3-one, mean (±SD) [1, 6] | Cavg of androst-4-en-17β-ol-3-one, mean (±SD) [2, 7] | Cmax of androst-4-en-17β-ol-3-one, mean (±SD) [2, 7] | Cavg of androst-4-en-17β-ol-3-one, mean (±SD) [2, 8] | Cmax of androst-4-en-17β-ol-3-one, mean (±SD) [2, 8] | Cavg of androst-4-en-17β-ol-3-one, mean (±SD) [2, 9] | Cmax of androst-4-en-17β-ol-3-one, mean (±SD) [2, 9] | Cavg of androst-4-en-17β-ol-3-one, mean (±SD) [2, 10] | Cmax of androst-4-en-17β-ol-3-one, mean (±SD) [2, 10] |
| --- | --- | --- | --- | --- | --- | --- | --- | --- | --- | --- | --- | --- | --- | --- | --- | --- |
| CCCCCCCCCCCCC(=O)O[C@H]1CC[C@H]2[C@@H]3CCC4=CC(=O)CC[C@]4(C)[C@H]3CC[C@]12C [[(8R,9S,10R,13S,14S,17S)-10,13-dimethyl-3-oxo-1,2,6,7,8,9,11,12,14,15,16,17-dodecahydrocyclopenta[a]phenanthren-17-yl] tridecanoate] | 307 (157) ng/dL | 608 (318) ng/dL | 352 (41) ng/dL | 822 (254) ng/dL | 405 (148) ng/dL | 930 (326) ng/dL | 465 (201) ng/dL | 1233 (695) ng/dL |  |  |  |  |  |  |  |  |
| CCCCCCCCCCC(=O)O[C@H]1CC[C@H]2[C@@H]3CCC4=CC(=O)CC[C@]4(C)[C@H]3CC[C@]12C [(17-ß)-3-oxoandrost-4-en-17-yl undecanoate] |  |  |  |  |  |  |  |  | 270 (94) ng/dL | 544 (169) ng/dL | 319 (77) ng/dL | 792 (276) ng/dL | 446 (161) ng/dL | 1169 (356) ng/dL | 582 (184) ng/dL | 1644 (644) ng/dL |
